Publication PMC10285260, “Processive kinetics in the three-step lanosterol 14α-demethylation reaction catalyzed by human cytochrome P450 51A1” (The Journal of Biological Chemistry, 2023)

Key:
human P450 51A1 [1] = molecular target: T1, human P450 51A1 (Homo sapiens, UniProt Q16850); assay: Oxidation of dihydroagnosterol by human P450 51A1 (LC-UV); assay type: biochemical; design: made in house; host or cells: Escherichia coli
T1 sequence (Q16850 1-509): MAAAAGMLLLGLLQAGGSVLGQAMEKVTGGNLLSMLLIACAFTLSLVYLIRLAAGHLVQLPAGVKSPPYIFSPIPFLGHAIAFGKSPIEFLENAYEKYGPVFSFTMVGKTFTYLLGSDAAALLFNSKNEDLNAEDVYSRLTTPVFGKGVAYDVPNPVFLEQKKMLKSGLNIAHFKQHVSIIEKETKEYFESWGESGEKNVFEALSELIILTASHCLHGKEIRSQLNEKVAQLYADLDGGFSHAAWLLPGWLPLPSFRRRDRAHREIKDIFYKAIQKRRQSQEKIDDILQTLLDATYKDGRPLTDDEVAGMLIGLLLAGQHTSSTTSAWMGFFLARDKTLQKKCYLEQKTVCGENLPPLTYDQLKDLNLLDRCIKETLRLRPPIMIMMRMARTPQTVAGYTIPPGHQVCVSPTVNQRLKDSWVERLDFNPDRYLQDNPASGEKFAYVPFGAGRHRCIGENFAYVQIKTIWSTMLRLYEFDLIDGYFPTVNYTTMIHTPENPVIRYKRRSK
Protocol: The possibility existed that this molecule could be a substrate. […] However, on the basis of the UV and mass spectra and literature precedents ([38], [39]), we have assigned the structure as 4,4′-dimethylcholesta-7,9,14-trienol. The UV spectrum retains (Fig. 6) the detailed chromophore of agnosterol (Fig. S23) plus an additional transition at higher wavelength, as expected based on the UV spectrum of FF-MAS (Fig. S18).
Figure 6 Oxidation of dihydroagnosterol by human P450 51A1. The incubation included 0.1 μM P450 51A1 and 10 μM dihydroagnosterol and ran for 10 min at 37 °C in the absence and presence of NADPH. The products were extracted and analyzed by UPLC-UV and UPLC-MS. A, UPLC chromatogram (UV, 192 and 245 nm). B, mass spectrum [M+H-H2O]^+, calculated for C29H45, 393.3516; found, 393.3493 (−5.9 ppm) and assigned structure. C, UV spectrum (from tR 7.3 min peak of A). UPLC, ultra-performance liquid chromatography.

human P450 51A1 [2] = molecular target: T1, human P450 51A1; assay: Inhibition of dihydrolanosterol 14-demethylation (oxidation to dihydro FF-MAS); assay type: biochemical; design: made in house; host or cells: Escherichia coli
Source text: Agnosterol (Fig. 2) is a common Δ^7,14 contaminant of commercial lanosterol preparations (Fig. S22) ([25], [36]). We also encountered this molecule and its derivatives, with its characteristic UV spectra derived from our synthesis beginning with 7-dehydrocholesterol (Figs. S1 and S17). The most likely entry point is the m-chloroperbenzoic acid epoxidation (Fig. S1, step 7) ([37]). […] The contaminant could be removed by preparative HPLC (C18, CH3CN, see Supporting Information).
epi-Dihydrolanosterol, which appears to be an obscure natural product ([32]), was recovered as a side product in one of the synthetic steps and shown to bind to human P450 51A1 tightly and be demethylated at a similar rate as the common β-hydroxy isomer (Figs 5B and 7A), behavior similar to that earlier reported for the yeast (Saccharomyces cerevisiae) enzyme ([34]). An H-bond between the sterol C3-OH and the main chain oxygen of a P450 51 residue preceding the beginning of the β1-4 strand is observed in four P450 51 structures in the Protein Data Bank: Trypanosoma brucei [3P99] ([48]), Trypanosoma cruzi [6FMO] ([49]), human [6UEZ] ([19]), plus a sterol-forming bacterium, Methylococcus capsulatus [7SNM] ([50]). Whether this interaction is replaced by another with epi-lanosterol is presently a point of conjecture and future research. […]

CC(C)CCCC(C)[C@H]1CC[C@@]2(C)C3=CCC4C(C)(C)[C@@H](O)CC[C@]4(C)C3=CC[C@]12C (stereo partly drawn) [dihydroagnosterol]
rate of disappearance relative to that of dihydrolanosterol (human P450 51A1 [1]): one-half
rate of disappearance (human P450 51A1 [1]; 0.1 μM P450 51A1, 10 μM dihydroagnosterol, 37 °C): ~10 min⁻¹
IC50 (human P450 51A1 [2]): ≥ 10 µM
